In assay [1] the test system is TET3. The experiment in a line: TET3 protein stability (cycloheximide) in MDMs. The conditions noted are these: 10 μM, with cycloheximide. It counts as cell-based, human. Here is the method: For TET protein stability assay of MDMs, cells in 24-well plates were incubated with vehicle or Bobcat339 at a final concentration of 10 μM for 3 h, followed by addition of cycloheximide (CHX, Cell Signaling, 2112) at a final concentration of 50 μg/mL. Proteins were harvested at 0, 2, 4, and 6 hours after addition of CHX.

The test system of the next assay is AgRP neurons. The assay is described as follows: AgRP neuron viability and activation (FOS). It counts as in vivo, mouse. The conditions noted are these: Bobcat339 vs. vehicle mice. From the text: As genetic TET3 knockdown specifically in AgRP neurons activated these neurons (Xie et al., 2022, J Clin Invest, 132), additional studies tested whether Bobcat339 treatment can activate AgRP neurons using FOS (a marker for neuronal activation) as a readout. Thus, ARCs were isolated under fed conditions (9:00-11:00) from mice treated with Bobcat339 or vehicle as above (FIG. 16A through FIG. 16D).
Bobcat339 powder (Sigma-Aldrich, SML2611) was freshly dissolved in DMSO (vehicle) at a concentration of 50 mg/mL and filtered through a 0.22 micron. It was further diluted with 1×PBS to a final concentration of 0.5 mg/mL before injections. Mice were injected intraperitoneally with Bobcat339 at 1 mg/kg, 2.5 mg/kg, or 4 mg/kg.
The immunofluorescence for brain slices was conducted using previous methods (18). In brief, postfixed sections were cut into 40-μm-thick sections, followed by 5 times washing. […] The sections were coverslipped and scoped using a Keyence BZ-X700 fluorescence microscope. The fluorescence signals from GFP in AgRP neurons were detected without immunostaining.

A further assay relates to Agrp, Npy and Slc32a1. The assay is described as follows: Agrp, Npy and Slc32a1 mRNA in GT1-7 cells. It counts as cell-based, mouse. The conditions noted are these: 10 μM, 48 h. The source says:
Mouse GT1-7 hypothalamic neuronal cell line (Sigma-Aldrich, SCC116) and human SH-SY5Y neuroblastoma cell line (Sigma Aldrich, 94030304) were purchased and cultured according to the manufacturers' instructions. Purified Ad-TET3 adenovirus (Ad-FLAG.h-TET3, ADV-225322, Vector Biolabs) expressing human TET3 from a CMV promoter and Ad-GFP control adenovirus (1060, Vector Biolabs) were purchased.
For Bobcat339 treatment (FIG. 15A and FIG. 15B), GT1-7 cells grown in 24-well plates at 2×10^5 cells/well were incubated with vehicle or Bobcat339 at a final concentration of 10 μM for 6 h, followed by RNA and protein extractions. […] Protein and RNA were isolated 48 h later and analyzed.
Total RNAs were extracted from neuronal cells or homogenized hypothalamic arcuate nucleus tissue samples using PureLink RNA Mini Kit (Ambion, 12183025). cDNA was synthesized using PrimeScript RT Reagent Kit in a 20 μl reaction containing 0.5-1 μg of total RNA. Real-time quantitative PCR was performed in a 15 μl reaction containing 0.5-1 μl of cDNA using SsoAdvanced Universal SYBR Green Supermix in a Bio-Rad iCycler. […]

Assay [2] deals with TET3. The conditions noted are these: Lv et al., 2023; cited from earlier work.
For assay [3], the system named is TET3. The experiment in a line: TET3 protein stability (cycloheximide) in RAW 264.7 cells. It counts as cell-based, mouse. The conditions noted are these: 10 μM, with cycloheximide. Here is the method:
For TET3 protein stability assay, cells in 24-well plates were incubated with vehicle or Bobcat339 at a final concentration of 10 μM for 3 hours, followed by addition of cycloheximide (CHX, Cell Signaling, 2112) at a final concentration of 50 μg/mL in the presence of 10 μM of Bobcat339. Proteins were harvested at 0, 1, 2, and 3 hours after addition of CHX.

The structures appear in SMILES notation. “Also recorded” adds a separate entry of the source.

As usually defined, the minimal effective concentration is the smallest amount tested that counted as effective. As to `Nc1nc(=O)n(-c2cccc(-c3ccccc3)c2)cc1Cl` [Bobcat339, 4-Amino-1-[1,1′-biphenyl]-3-yl-5-chloro-2(1H)-pyrimidinone], the figures for the TET3 protein stability result in the assay with TET3 [1] and in the assay with TET3 [3] were “reduced the steady-state level of TET3 much more dramatically than that of TET2” and “less stable”, respectively. For the same compound, the “AgRP neuronal viability / number” value in the assay on AgRP neurons is on record as “did not affect AgRP neuronal viability; also recorded: no significant difference between the groups”. Also, in the assay with AgRP neurons (fed), the “FOS expression in AgRP neurons” value was “increased expression of FOS in AgRP neurons”. In addition, the “Agrp, Npy and Slc32a1 mRNA levels” value with Agrp, Npy and Slc32a1 (with TET3-expressing adenovirus (Ad-TET3)) is “not seen when the level of TET3 protein was restored; also recorded: not seen when TET3 was overexpressed”; in the assay with Agrp, Npy and Slc32a1 (without exogenous TET3), “increased in the mRNA levels of both Agrp and Npy; also recorded: increases in the mRNA levels of Agrp, Npy and Slc32a1; also recorded: significant increases in the Agrp/Nyp mRNAs”. Moreover, the minimal effective concentration in the assay on TET3 [2] is 10 µM. Besides, the “half-life of TET3” value is recorded as ~ 80 minutes in the assay on TET3 [3] (RAW) and ~ 80 min with TET3 [3] (macrophages).

Source of the values: US20260355199A1, “COMPOSITIONS AND METHODS FOR TREATING OR PREVENTING NONALCOHOLIC STEATOHEPATITIS (NASH), ANOREXIA, DEPRESSION, ENDOMETRIOSIS, AND OTHER DISEASES OR DISORDERS” (priority 2022, published 2026).
